Measured values as given in ChEMBL document CHEMBL1201862, “PubChem BioAssay data set” (2004).
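Each compound was tested at five concentrations against cells in 96-well plates for 48 hours. GI50 = concentration required for 50% inhibition of growth.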 Active and inactive are the calls of the source. Cut-off read from the data, not from the text of the source: active = GI50 up to about 1.1 µM and inactive = higher.

How the values were obtained:
Experiment in all cases: growth of human tumour cells (NCI), 48 h
[1] = tested on: NCI-H226
[2] = tested on: SF-268
[3] = tested on: HL-60
[4] = tested on: OVCAR-5
[5] = tested on: NCI-H460
[6] = tested on: IGROV-1
[7] = tested on: OVCAR-3
[8] = tested on: SF-539
[9] = tested on: HCC 2998
[10] = tested on: HOP-62
[11] = tested on: SNB-75
[12] = tested on: HCT-15
[13] = tested on: HCT-116
[14] = tested on: HOP-92
[15] = tested on: SK-MEL-5
[16] = tested on: COLO 205
[17] = tested on: M14

Measured: GI50

CN(C)CC[N+]1=Nc2cccc3cccc(c23)N1
inactive: [1] 71 µM | [2] > 89.9 µM | [3] 24.3 µM | [4] > 94 µM | [5] 16.9 µM | [6] 61.8 µM | [7] > 100 µM | [8] 72.9 µM | [9] > 95.7 µM | [10] 71 µM | [11] > 76.6 µM | [13] 3.86 µM | [14] 34.2 µM | [15] > 52.8 µM | [16] 31.2 µM | [17] > 100 µM
62.7 µM: [12]

Nc1ccc(C(=O)NN2C(=O)C(Cl)C2c2cccc(O)c2)cc1 (configuration not stated)
inactive: [1] 18.5 µM | [2] 3.34 µM | [3] 1.69 µM | [4] 22.2 µM | [5] 14 µM | [6] 14.4 µM | [7] 15.8 µM | [8] 17.1 µM | [9] 15.8 µM | [10] 15.4 µM | [11] 22.3 µM | [13] 4.4 µM | [14] 17.4 µM | [15] 17.6 µM | [16] 17.1 µM | [17] 19.4 µM
12.7 µM: [12]

O[C@H]1[C@H]2[C@H](O)CCCN2C[C@H]1O [TRIDOLGOSIR]
> 100 µM: [12]
inactive: [1] > 100 µM | [2] > 100 µM | [3] > 100 µM | [4] > 100 µM | [5] > 100 µM | [6] > 100 µM | [7] > 100 µM | [8] > 100 µM | [9] > 100 µM | [10] > 100 µM | [11] > 100 µM | [13] > 100 µM | [14] > 100 µM | [15] > 100 µM | [16] > 100 µM | [17] > 100 µM

CCOC(=O)/C(C#N)=C\Sc1ccccc1
inactive: [1] 16.7 µM | [2] 3.73 µM | [3] 7.23 µM | [4] 24.7 µM | [5] 26.4 µM | [6] 10.2 µM | [7] 17.4 µM | [8] 15.8 µM | [10] 36.1 µM | [11] 18.8 µM | [13] 16.8 µM | [14] 37.2 µM | [15] 22.3 µM | [16] 20.1 µM | [17] 15.9 µM

NC(=O)C12C3C4C1C1C2C3C41C(N)=O (configuration not stated)
> 100 µM: [12]
inactive: [1] > 100 µM | [2] > 100 µM | [3] > 100 µM | [4] > 100 µM | [5] > 100 µM | [6] > 100 µM | [7] > 100 µM | [8] > 100 µM | [9] > 100 µM | [10] > 100 µM | [11] > 100 µM | [13] > 100 µM | [14] > 100 µM | [15] > 100 µM | [16] > 100 µM | [17] > 100 µM

C[Si](C)(C)/C=C\CCCN1C(=O)CCC1=O
inactive: [2] > 100 µM | [3] > 100 µM | [4] 86.5 µM | [5] > 100 µM | [6] > 100 µM | [7] > 100 µM | [8] > 100 µM | [9] > 100 µM | [11] 62.5 µM | [13] > 100 µM | [14] > 100 µM | [15] 93.8 µM | [16] > 100 µM | [17] > 100 µM
> 100 µM: [12]

Cc1cc(O)nc(NNC(C#N)c2ccc(N(C)C)cc2)n1 (configuration not stated)
inactive: [1] > 100 µM | [2] > 100 µM | [3] > 100 µM | [4] > 100 µM | [5] > 100 µM | [6] > 100 µM | [7] > 100 µM | [8] > 100 µM | [10] > 100 µM | [11] > 100 µM | [13] > 100 µM | [14] > 100 µM | [15] > 100 µM | [16] > 100 µM | [17] > 100 µM
> 100 µM: [12]

CCOC(=O)C(=Cc1cc(OC)ccc1OC)C(=O)OCC
5.71 µM: [12]
inactive: [1] 10.6 µM | [2] 5.36 µM | [3] 1.96 µM | [4] 6.27 µM | [5] 30.2 µM | [6] 23.8 µM | [7] 10.7 µM | [8] 4.1 µM | [9] 20 µM | [10] 10.4 µM | [11] 1.67 µM | [13] 14.4 µM | [14] 3.2 µM | [15] 4.16 µM | [16] 4.88 µM | [17] 11.6 µM

COc1cc(/C=N/N=C(\N)NO)cc(Cl)c1O
inactive: [1] 22.8 µM | [2] 46.7 µM | [4] 35.3 µM | [5] 41.6 µM | [6] 69.7 µM | [7] 70.3 µM | [8] 34.4 µM | [9] 45.3 µM | [10] 35.7 µM | [13] 55.7 µM | [14] 57.8 µM | [15] 33.4 µM | [16] > 100 µM | [17] 33.4 µM
66.8 µM: [12]

CC1CC(=O)C(CC(=O)O)C1C(C(=O)C(=O)Nc1c(C#N)cccc1[N+](=O)[O-])[N+](=O)[O-] (configuration not stated)
inactive: [1] > 100 µM | [2] > 100 µM | [3] > 100 µM | [4] > 100 µM | [5] > 100 µM | [6] > 100 µM | [7] > 100 µM | [8] > 100 µM | [9] > 100 µM | [10] > 100 µM | [11] > 100 µM | [13] > 100 µM | [14] 82.2 µM | [15] > 100 µM | [16] > 100 µM | [17] > 100 µM
> 100 µM: [12]

O=C(CSSCC(=O)OCCS(=O)(=O)Nc1ccc(Br)cc1)OCCS(=O)(=O)Nc1ccc(Br)cc1
14.5 µM: [12]
inactive: [2] 13.9 µM | [3] 14.7 µM | [4] 13.9 µM | [5] 14.5 µM | [6] 17.3 µM | [7] 13.1 µM | [8] 10.2 µM | [9] 7.8 µM | [10] > 10 µM | [11] 28.2 µM | [14] 13.1 µM | [15] 11.8 µM | [16] 11.6 µM | [17] 12.8 µM

CCCCNc1nc(C#N)c(N)s1
> 100 µM: [12]
inactive: [1] > 100 µM | [2] > 100 µM | [3] > 100 µM | [4] > 100 µM | [5] > 100 µM | [6] > 100 µM | [7] > 100 µM | [8] > 100 µM | [9] > 100 µM | [10] > 100 µM | [11] > 100 µM | [13] > 100 µM | [14] > 100 µM | [16] > 100 µM | [17] > 100 µM

COC(=O)C(=O)C(C(=O)C(=O)Nc1ccc(OC)cc1[N+](=O)[O-])c1nc2ccc([N+](=O)[O-])cc2nc1O (configuration not stated)
> 100 µM: [12]
inactive: [1] > 100 µM | [2] > 100 µM | [3] > 100 µM | [4] > 100 µM | [5] > 100 µM | [6] > 100 µM | [7] > 100 µM | [9] > 100 µM | [10] > 100 µM | [11] 26.5 µM | [13] > 100 µM | [14] > 100 µM | [16] > 100 µM | [17] > 100 µM

COC(=O)C1=C(C(=O)OC)C23C=CC=CC24C(C(=O)OC)=C(C(=O)OC)C4C1C3 (configuration not stated)
59.8 µM: [12]
inactive: [2] > 100 µM | [3] 41.7 µM | [4] > 100 µM | [5] > 100 µM | [6] > 100 µM | [7] > 100 µM | [8] > 100 µM | [9] > 100 µM | [10] > 100 µM | [13] 77.1 µM | [14] > 100 µM | [15] > 100 µM | [16] > 100 µM | [17] > 100 µM
active: [11] 0.743 µM

COc1cc(/C=C2\[C@H]3c4c(c(OC)c(C)c(OC)c4OC)C[C@@H](C(=O)N2Cc2ccccc2)N3C(=O)OC(C)C)c(OC)c(C)c1OC
inactive: [1] 6.08 µM | [2] > 100 µM | [3] 19.8 µM | [4] > 100 µM | [5] 5.31 µM | [6] > 100 µM | [7] 67.3 µM | [8] > 100 µM | [9] 29.6 µM | [10] > 100 µM | [11] > 100 µM | [13] 58.7 µM | [14] 8.34 µM | [15] 48.4 µM | [16] 53.7 µM | [17] > 100 µM

Cc1cc([N+](=O)[O-])ccc1NC(=O)C(=O)C(C(=O)c1ccccc1-c1ccccc1)C1OC(=O)c2ccccc21 (configuration not stated)
inactive: [1] 12.2 µM | [2] 21.6 µM | [4] 15.4 µM | [5] 17 µM | [6] 19.6 µM | [8] 9.02 µM | [9] 15.5 µM | [13] 16 µM | [14] 16.9 µM | [15] 15 µM | [16] 20.8 µM | [17] 14 µM
15.1 µM: [12]

COC(=O)CCC(NC(=S)N/N=C(\C)c1ccco1)C(=O)OC (configuration not stated)
> 100 µM: [12]
inactive: [1] > 100 µM | [2] > 100 µM | [3] > 100 µM | [4] > 100 µM | [5] > 100 µM | [6] > 100 µM | [7] > 100 µM | [8] > 100 µM | [9] > 100 µM | [10] > 100 µM | [11] > 100 µM | [13] > 100 µM | [15] > 100 µM | [16] > 100 µM | [17] > 100 µM

Cc1nc2ccccc2c(=O)n1/N=C(\N=N\c1ccc(Cl)cc1)c1cccc(-c2ccco2)c1
30.2 µM: [12]
inactive: [2] 19.7 µM | [3] 25.1 µM | [5] 37.7 µM | [6] 31.3 µM | [8] 28.6 µM | [10] 22.5 µM | [13] 19.1 µM | [14] 16.1 µM | [15] 18.9 µM | [16] 31.8 µM | [17] 34.1 µM
